Measurements reported in patent US20240316059A1, “PEPTIDE DRUG CONJUGATES” (Oncopeptides AB, priority 2021, published 2024).
Like-named read-outs stand apart in the source and are kept apart here.

Key:
U937 = assay: In vitro cytotoxicity, U937 (Histiocytic Lymphoma); assay type: cell-based; conditions: Homo sapiens, read-out: Cytotoxicity IC50, U937
Experimental: (§1) All cells were cultivated in RPMI medium 1640 (IX). All media was supplemented with 10 μg/μl penicillin/streptomycin, 10% heat inactivated FBS, 0.1 mM Sodium Pyruvate, 1×MEM NEAA (ThermoFisher) and 1 mM HEPES. The DERL-2 cells had higher FBS (20%) and 40 ng/mL IL-2 was added. hPBMCs were thawed and allowed to acclimatise overnight and then stimulated with 10 μg/mL PHA-M and 40 ng/mL IL-2 for 4 hours before being exposed to test compounds. All cells, except for hPBMCs, were grown to reach log phase before being exposed to the test compounds.
(§2) Test compounds were dissolved in 100% DMSO and added to a 384 assay plate. Additional DMSO was added to maintain the same final DMSO concentration (0.2%) in all wells. 25 μL cell suspension with a concentration of 100000 cells/mL was added to each well. The cells were cultured in a CO2 incubator at 37° C. for 72 h. Plates were equilibrated to room temperature for 30 minutes before adding 20 μL CellTiter-Glo® 2.0 (Promega) reagent to all wells. The plate was then allowed to stabilize for 20 minutes before recording the luminescence (Em filter 700 nm) in an Envision plate reader.

DOHH-2 = assay: In vitro cytotoxicity, DOHH-2 (B Cell Lymphoma); assay type: cell-based; conditions: Homo sapiens, read-out: Cytotoxicity IC50, DOHH-2
Experimental: as §1, §2

MM.1S cells = assay: In vitro cytotoxic potency in MM.1S cell viability assay (CellTiter-Glo); assay type: cell-based, human; conditions: Homo sapiens, MM1.S, 72 h
Experimental: Methods: MM.1S Cells were cultivated in RPMI medium 1640 (IX) supplemented with 10 μg/μL penicillin/streptomycin, 10% heat inactivated FBS, 0.1 mM Sodium Pyruvate, 1×MEM NEAA (ThermoFisher) and 1 mM HEPES. Cells were grown to reach log phase before being exposed to the test compounds.
as §2, with “compounds (Example compounds 1 to 36, 38 to 41 and 45 to 48) and comparative compounds (bendamustine, busulfan, melphalan, chlorambucil and 4-hydroperoxy cyclophosphamide)” for “compounds”, “(emission” for “(Em”
as §1, §2

SC-1 = assay: In vitro cytotoxicity, SC-1 (B cell Lymphoma); assay type: cell-based; conditions: Homo sapiens, read-out: Cytotoxicity IC50, SC-1
Experimental: as §1, §2

RPMI-8226 = assay: In vitro cytotoxicity, RPMI-8226 (Multiple Myeloma, resistant); assay type: cell-based; conditions: Homo sapiens, read-out: Cytotoxicity IC50, RPMI-8226
Experimental: as §1, §2

HG-3 = assay: In vitro cytotoxicity, HG-3 (Chronic Lymphocytic Leukemia); assay type: cell-based; conditions: Homo sapiens, read-out: Cytotoxicity IC50, HG-3
Experimental: as §1, §2

SU-DHL-8 = assay: In vitro cytotoxicity, SU-DHL-8 (B-cell non-Hodgkin Lymphoma); assay type: cell-based; conditions: Homo sapiens, read-out: Cytotoxicity IC50, SU-DHL-8
Experimental: as §1, §2

Toledo = assay: In vitro cytotoxicity, Toledo (Diffuse Large B Cell Lymphoma); assay type: cell-based; conditions: Homo sapiens, 72 h
Experimental: as §1, §2

SK-MM-1 = assay: In vitro cytotoxicity, SK-MM-1 (Plasma Cell Leukemia); assay type: cell-based; conditions: Homo sapiens, 72 h, read-out: Cytotoxicity IC50, SK-MM-1
Experimental: as §1, §2

[1] = In vitro cytotoxicity, human peripheral blood mononuclear cells; assay type: cell-based; conditions: CellTiter-Glo 2.0, stimulated with PHA-M and IL-2, read-out: Cytotoxicity IC50, hPBMC
Experimental: as §1, §2

[2] = test system: DNA prepared from MM.1S cells (nuclear HPRT and mitochondrial DNA); assay: Direct DNA damage, PCR amplification of treated DNA (HPRT and mtDNA primers); assay type: biochemical, human; conditions: 0.25 μM compound, 30 minutes, 37° C., 1 μg DNA
Experimental: Method: DNA was prepared from MM.1S cells by QIAGEN genomic tip 20/G according to protocol described in Furda et al., Methods Mol Biol, 2012. 1 μg of DNA was treated with 0.25 μM compound for 30 minutes at 37° C. DMSO was used as control treatment. 20 ng of the treated DNA was PCR amplified using Phusion Hot Start II High Fidelity PCR Master Mix (Thermo Scientific) and primers directed to either HPRT or primers directed to mitochondrial DNA (mtDNA) was used, generating 10.4 or 8.9 kb fragments, respectively. The PCR reactions were separated on a 1% agarose gel and visualized by ChemiDoc™ MP Imaging System (BioRad). Example compounds 1, 2 and 38 were investigated, as were compounds 18 and 20, which are metabolites of compound 1. They were compared with bendamustine, melphalan and DMSO control. The results for compounds 1, 2, 18 and 20 with the HPRT primers are shown in FIG. 4(A); the results with the mtDNA primers are shown in FIG. 4(B).

SUP-T1 = assay: In vitro cytotoxicity, SUP-T1 (T cell Lymphoma); assay type: cell-based; conditions: Homo sapiens, SUP-T1, 72 h, read-out: Cytotoxicity IC50, SUP-T1
Experimental: as §1, §2

DERL-2 = assay: In vitro cytotoxicity, DERL-2 (T cell Lymphoma); assay type: cell-based; conditions: Homo sapiens, 72 h, read-out: Cytotoxicity IC50, DERL-2
Experimental: as §1, §2

U266 = assay: In vitro cytotoxicity, U266 (Multiple Myeloma); assay type: cell-based; conditions: Homo sapiens, read-out: Cytotoxicity IC50, U266
Experimental: as §1, §2

[3] = In vitro cytotoxicity, BJ fibroblasts (normal cells); assay type: cell-based; conditions: human, CellTiter-Glo 2.0
Experimental: as §1, §2

EJM = assay: In vitro cytotoxicity, EJM (Multiple Myeloma); assay type: cell-based; conditions: Homo sapiens, 72 h
Experimental: as §1, §2

KMS-12-BM = assay: In vitro cytotoxicity, KMS-12-BM (Multiple Myeloma); assay type: cell-based; conditions: Homo sapiens, 72 h
Experimental: as §1, §2

AMO-1 = assay: In vitro cytotoxicity, AMO-1 (Multiple Myeloma); assay type: cell-based; conditions: Homo sapiens, read-out: Cytotoxicity IC50, AMO-1
Experimental: as §1, §2

OPM-2 = assay: In vitro cytotoxicity, OPM-2 (Multiple Myeloma); assay type: cell-based; conditions: Homo sapiens, read-out: Cytotoxicity IC50, OPM-2
Experimental: as §1, §2

[4] = read-out: Cytotoxicity IC50, MM.1S
[5] = read-out: Cytotoxicity IC50, Toledo
[6] = CellTiter-Glo 2.0, read-out: Cytotoxicity IC50, EJM
[7] = RPMI-8226, 72 h, CellTiter-Glo 2.0
[8] = CellTiter-Glo 2.0, read-out: Cytotoxicity IC50, KMS-12-BM
[9] = DOHH-2, 72 h, CellTiter-Glo 2.0
[10] = SU-DHL-8, 72 h, CellTiter-Glo 2.0
[11] = CellTiter-Glo 2.0, read-out: Cytotoxicity IC50, Toledo

SMILES | IC50 (U937; U-937, 72 h) [nM] | IC50 (DOHH-2; DOHH-2, 72 h) [nM] | IC50 (MM.1S cells; [4]) [nM] | IC50 (MM.1S cells; read-out: MM.1S IC50) [nM] | IC50 (SC-1; SC-1, 72 h) [nM] | IC50 (RPMI-8226; RPMI-8226, 72 h) [nM] | IC50 (HG-3; HG-3, 72 h) [nM] | IC50 (SU-DHL-8; SU-DHL-8, 72 h) [nM] | IC50 (Toledo; [5]) [nM] | IC50 (SK-MM-1) [nM] | IC50 at 72 h [1] [nM] | DNA damage on nuclear and mitochondrial DNA (PCR band) [2] | IC50 (SUP-T1) [nM] | IC50 (DERL-2) [nM] | IC50 at 72 h [3] [nM] | IC50 (U266; U-266, 72 h, CellTiter-Glo 2.0) [nM] | IC50 (EJM; [6]) [nM] | IC50 (SC-1; SC-1, 72 h, CellTiter-Glo 2.0) [nM] | IC50 (RPMI-8226; [7]) [nM] | IC50 (KMS-12-BM; [8]) [nM] | other results
CCOC(=O)[C@H](Cc1ccc(F)cc1)NC(=O)[C@@H](N)CCc1nc2cc(N(CCCl)CCCl)ccc2n1C [Example 2, Ethyl (2S)-2-[[(2S)-2-amino-4-[5-[bis(2-chloroethyl)amino]-1-methyl-benzimidazol-2-yl]butanoyl]amino]-3-(4-fluorophenyl)propanoate] | 14.2 | 5.3 | 7.8 | 7.8 | 21 | 41.5 | 25.7 | 20.4 | 6.6 | 38.3 | 7.5 | strong DNA damaging effect | 17.8 | 7.8 | – | – | – | – | – | – | –
CCOC(=O)[C@H](Cc1nc2cc(N(CCCl)CCCl)ccc2n1C)NC(=O)[C@@H](N)CC(C)C [Example 10, Ethyl (2S)-2-[[(2S)-2-amino-4-methyl-pentanoyl]amino]-3-[5-[bis(2-chloroethyl)amino]-1-methyl-benzimidazol-2-yl]propanoate] | 19.4 | 63.9 | 19.2 | 19.2 | 169 | 335 | 71.3 | 22.1 | 8.5 | 62.4 | 26.4 | – | 35.6 | 22.6 | – | – | – | – | – | – | –
CCOC(=O)[C@H](CC(C)C)NC(=O)[C@@H](N)CCc1nc2cc(N(CCCl)CCCl)ccc2n1-c1ccccc1 [Example 13, Ethyl (2S)-2-[[(2S)-2-amino-4-[5-[bis(2-chloroethyl)amino]-1-phenyl-benzimidazol-2-yl]butanoyl]amino]-4-methyl-pentanoate] | – | – | 49 | 49 | 134 | 1720 | – | – | – | – | – | – | – | – | > 2000 | – | – | – | – | – | IC50 (U266; U-266, 72 h): 400 nM; IC50 (EJM; read-out: Cytotoxicity IC50, EJM): 356 nM; IC50 (KMS-12-BM; read-out: Cytotoxicity IC50, KMS-12-BM): 137 nM; IC50 (AMO-1; AMO1, 72 h): 965 nM; IC50 (OPM-2; OPM-2, 72 h): 2110 nM
CC(C)C[C@H](NC(=O)[C@@H](N)CCc1nc2cc(N(CCCl)CCCl)ccc2n1C)C(=O)N(C)C [Example 30, (2S)-2-[[(2S)-2-Amino-4-[5-[bis(2-chloroethyl)amino]-1-methyl-benzimidazol-2-yl]butanoyl]amino]-N,N,4-trimethyl-pentanamide] | – | – | 39.7 | 39.7 | – | – | – | – | – | – | – | – | – | – | > 2000 | 131 | 173 | 53.7 | 492 | 45 | IC50 (AMO-1; AMO1, 72 h, CellTiter-Glo 2.0): 653 nM; IC50 (OPM-2; OPM-2, 72 h, CellTiter-Glo 2.0): 322 nM
CCOC(=O)[C@H](Cc1ccc(F)cc1)NC(=O)[C@H](CCc1nc2cc(N(CCCl)CCCl)ccc2n1C)NC(C)=O [Example 34, Ethyl (2S)-2-[[(2S)-2-acetamido-4-[5-[bis(2-chloroethyl)amino]-1-methyl-benzimidazol-2-yl]butanoyl]amino]-3-(4-fluorophenyl)propanoate] | – | – | 68.3 | 68.3 | – | – | – | – | – | – | – | – | – | – | > 2000 | 266 | 637 | 1060 | 1450 | 105 | IC50 (U937; U-937, 72 h, CellTiter-Glo 2.0): 397 nM; IC50 (DOHH-2; [9]): 543 nM; IC50 (HG-3; HG-3, 72 h, CellTiter-Glo 2.0): 888 nM; IC50 (SU-DHL-8; [10]): 202 nM; IC50 (Toledo; [11]): 328 nM; IC50 (SK-MM-1; CellTiter-Glo 2.0): 604 nM; IC50 (AMO-1; AMO1, 72 h, CellTiter-Glo 2.0): 758 nM; IC50 (OPM-2; OPM-2, 72 h, CellTiter-Glo 2.0): 961 nM
CCOC(=O)[C@@H](N)CCc1nc2cc(N(CCCl)CCCl)ccc2n1C.Cl.Cl [Example 38, Ethyl (2S)-2-amino-4-[5-[bis(2-chloroethyl)amino]-1-methyl-benzimidazol-2-yl]butanoate] | – | – | 52 | 52 | – | – | – | – | – | – | – | effectively damaged both nuclear and mitochondrial DNA | – | – | – | – | – | 77.2 | 676 | – | IC50 (U937; U-937, 72 h, CellTiter-Glo 2.0): 25.3 nM; IC50 (DOHH-2; [9]): 28.1 nM; IC50 (HG-3; HG-3, 72 h, CellTiter-Glo 2.0): 49.8 nM; IC50 (SU-DHL-8; [10]): 71.4 nM; IC50 (Toledo; [11]): 16.2 nM; IC50 (SK-MM-1; CellTiter-Glo 2.0): 175 nM
